US9556158B2, “Fungicidal 3-[(pyridin-2-ylmethoxyimino)(phenyl)methyl]-2-substituted-1,2,4-oxadiazol-5(2H)-one derivatives” (BAYER INTELLECTUAL PROPERTY GMBH, priority 2011, dated 2017)

Assays:
[1] = pH 2.7, LogP, HPLC on reversed phase columns, pH 2.7, 0.1% formic acid in water / acetonitrile gradient
Description: Measurement of log P values was performed according EEC directive 79/831 Annex V.A8 by HPLC (High Performance Liquid Chromatography) on reversed phase columns with the following method:
Measurement of LC-MS was done at pH 2.7 with 0.1% formic acid in water and with acetonitrile (contains 0.1% formic acid) as eluent with a linear gradient from 10% acetonitrile to 95% acetonitrile.
Calibration was done with not branched alkan2-ones (with 3 to 16 carbon atoms) with known log P-values (measurement of log P values using retention times with linear interpolation between successive alkanones). lambda-maX-values were determined using UV-spectra from 200 nm to 400 nm and the peak values of the chromatographic signals.

Phytophthora infestans = assay: whole plant or invertebrate; type: in vivo; settings: in Solanum lycopersicum, 120 h, read-out: % efficacy
Pyricularia oryzae = assay: whole plant or invertebrate; type: in vivo; settings: 144 h, read-out: % efficacy
Plasmopara viticola = assay: Example I: in vivo preventive test on Plasmopara viticola (grapevine); settings: 144 h, 10 ppm of active ingredient, preventive spray on young plants, evaluated 6 days after inoculation, read-out: Eff. %
Description: In Vivo Preventive Test on Plasmopara viticola (Grapevine)
To produce a suitable preparation of active compound, 1 part by weight of active compound is mixed with the stated amounts of solvent and emulsifier, and the concentrate is diluted with water to the desired concentration.
To test for preventive activity, young plants are sprayed with the preparation of active compound at the stated rate of application. After the spray coating has dried on, the plants are inoculated with an aqueous spore suspension of Plasmopara viticola and then remain for 1 day in an incubation cabinet at approximately 20° C. and a relative atmospheric humidity of 100%. The plant is subsequently placed for 4 days in a greenhouse at approximately 21° C. and a relative atmospheric humidity of approximately 90%. The plants are then misted and placed for 1 day in an incubation cabinet.
The test is evaluated 6 days after the inoculation. 0% means an efficacy which corresponds to that of the untreated control, while an efficacy of 100% means that no disease is observed.

SMILES	chromatographic logP [1]	pest or weed control at 500 ppm (Phytophthora infestans) [%]	pest or weed control at 500 ppm (Pyricularia oryzae) [%]	pest or weed control at 10 ppm (Plasmopara viticola) [%]
CCCCCC(=O)Nc1cccc(CON=C(c2cccc(OC)c2)c2nc(=O)o[nH]2)n1 [Example 53]	3.31	95	75	–
CC(C)CCOC(=O)Nc1cccc(CON=C(c2cccc(F)c2)c2nc(=O)o[nH]2)n1 [Example 52]	3.83	100	75	–
Cn1oc(=O)nc1/C(=N\OCc1cccc(NC(=O)OC(C)(C)C)n1)c1cccc(F)c1 [Example 20, tert-butyl {6-[({[(Z)-(2-methyl-5-oxo-2,5-dihydro-1,2,4-oxadiazol-3-yl)(3-fluorophenyl)methylene]amino}oxy)methyl]pyridin-2-yl}carbamate]	3.46	100	81	74
O=C(CCc1ccccc1)Nc1cccc(CON=C(c2cccc(F)c2)c2nc(=O)o[nH]2)n1 [Example 47]	3.29	100	75	–
Cn1oc(=O)nc1C(=NOCc1cccc(NC(=O)SC(C)(C)C)n1)c1ccccc1 [Example 39]	3.73	99	–	–
Cc1cccc(C(=O)Nc2cccc(CON=C(c3cccc(F)c3)c3nc(=O)o[nH]3)n2)c1 [Example 75]	3.35	98	–	–
Cc1cccc(C(=NOCc2cccc(NC(=O)c3ccc(F)cc3)n2)c2nc(=O)on2C)c1 [Example 87]	3.33	75	–	–
CCCCCCC(=O)Nc1cccc(CON=C(c2cccc(C)c2)c2nc(=O)on2C)n1 [Example 78]	3.96	70	–	–
CC(Oc1ccccc1)C(=O)Nc1cccc(CON=C(c2cccc(F)c2)c2nc(=O)on2C)n1 (centres unmarked) [Example 97]	3.44	70	–	–
C#CCC(C)OC(=O)Nc1cccc(CON=C(c2cccc(C)c2)c2nc(=O)on2C)n1 (centres unmarked) [Example 83]	3.25	94	–	–
COc1ccc(CC(=O)Nc2cccc(CON=C(c3cccc(C)c3)c3nc(=O)on3C)n2)cc1 [Example 100]	3.19	100	–	–
COc1cccc(C(=NOCc2cccc(NC(=O)C(C)Oc3ccccc3)n2)c2nc(=O)o[nH]2)c1 (centres unmarked) [Example 44]	3.39	100	83	–
CCCCCC(=O)Nc1cccc(CON=C(c2cccc(C)c2)c2nc(=O)on2C)n1 [Example 59]	3.58	90	–	–
Cc1cccc(C(=NOCc2cccc(NC(=O)C(C)Oc3ccccc3)n2)c2nc(=O)on2C)c1 (centres unmarked) [Example 103]	3.64	80	–	–
COc1cccc(C(=NOCc2cccc(NC(=O)Cc3cccc(F)c3)n2)c2nc(=O)on2C)c1 [Example 105]	3.09	75	–	–
Cn1oc(=O)nc1C(=NOCc1cccc(NC(=O)OC2CCCCC2)n1)c1cccc(F)c1 [Example 33]	3.92	100	–	–
O=C(COc1ccccc1)Nc1cccc(CON=C(c2cccc(F)c2)c2nc(=O)o[nH]2)n1 [Example 51]	3.21	100	83	–
C#CCOC(=O)Nc1cccc(CON=C(c2cccc(F)c2)c2nc(=O)o[nH]2)n1 [Example 46]	2.69	100	83	–
C#CCCOC(=O)Nc1cccc(CON=C(c2cccc(F)c2)c2nc(=O)o[nH]2)n1 [Example 49]	2.8	93	83	–
CC#CCOC(=O)Nc1cccc(CON=C(c2cccc(C)c2)c2nc(=O)on2C)n1 [Example 107]	3.13	93	–	–
CC#CCOC(=O)Nc1cccc(CON=C(c2cccc(F)c2)c2nc(=O)o[nH]2)n1 [Example 65]	2.94	100	–	–
Cc1cccc(C(=NOCc2cccc(NC(=O)c3ccccc3)n2)c2nc(=O)on2C)c1 [Example 82]	3.21	75	–	–
CCCCCOC(=O)Nc1cccc(CON=C(c2ccccc2)c2nc(=O)on2C)n1 [Example 13]	3.81	100	–	95
CCCCCCC(=O)Nc1cccc(CON=C(c2cccc(OC)c2)c2nc(=O)o[nH]2)n1 [Example 50]	3.71	100	–	–

SMILES	chromatographic logP [1]	pest or weed control at 500 ppm (Phytophthora infestans) [%]	pest or weed control at 500 ppm (Pyricularia oryzae) [%]	pest or weed control at 10 ppm (Plasmopara viticola) [%]
Cn1oc(=O)nc1/C(=N\OCc1cccc(NC(=O)OCCc2ccccc2)n1)c1ccccc1 [Example 15, 2-phenylethyl {6-[({[(Z)-(2-methyl-5-oxo-2,5-dihydro-1,2,4-oxadiazol-3-yl)(phenyl)methylene]amino}oxy)methyl]pyridin-2-yl}carbamate]	3.57	99	–	94
COc1ccc(CC(=O)Nc2cccc(CON=C(c3cccc(F)c3)c3nc(=O)o[nH]3)n2)cc1 [Example 73]	3	95	–	–
C#CCC(C)OC(=O)Nc1cccc(CON=C(c2cccc(OC)c2)c2nc(=O)on2C)n1 (centres unmarked) [Example 94]	3.02	85	–	–
CCCCCCC(=O)Nc1cccc(CON=C(c2cccc(F)c2)c2nc(=O)o[nH]2)n1 [Example 70]	3.76	80	–	–
CCCCC(=O)Nc1cccc(CON=C(c2cccc(OC)c2)c2nc(=O)o[nH]2)n1 [Example 54]	2.96	100	83	–
C#CCC(C)OC(=O)Nc1cccc(CON=C(c2cccc(F)c2)c2nc(=O)on2C)n1 (centres unmarked) [Example 99]	3.09	100	–	–
CCCCOC(=O)Nc1cccc(CON=C(c2ccccc2)c2nc(=O)on2C)n1 [Example 14]	3.39	100	–	94
O=C(Cc1cccc(F)c1)Nc1cccc(CON=C(c2cccc(F)c2)c2nc(=O)o[nH]2)n1 [Example 74]	3.13	85	–	–
COc1cccc(C(=NOCc2cccc(NC(=O)OCCC(C)C)n2)c2nc(=O)on2C)c1 [Example 101]	3.78	70	–	–
Cc1cccc(C(=NOCc2cccc(N)n2)c2nc(=O)on2C)c1 [Example 31]	1.17	93	–	–
Cn1oc(=O)nc1/C(=N\OCc1cccc(NCCC2CCCCC2)n1)c1ccccc1 [Example 3, 3-[(Z)-[({6-[(2-cyclohexylethyl)amino]pyridin-2-yl}methoxy)imino](phenyl)methyl]-2-methyl-1,2,4-oxadiazol-5(2H)-one]	2.43	–	–	93
COc1ccc(CC(=O)Nc2cccc(CON=C(c3cccc(OC)c3)c3nc(=O)o[nH]3)n2)cc1 [Example 48]	2.98	100	–	–
CCCCCOC(=O)Nc1cccc(CON=C(c2cccc(F)c2)c2nc(=O)o[nH]2)n1 [Example 69]	3.89	100	–	–
Cc1cccc(C(=NOCc2cccc(NC(=O)OC3CCCCC3)n2)c2nc(=O)on2C)c1 [Example 30]	4.11	78	–	–
Cn1oc(=O)nc1C(=NOCc1cccc(NC(=O)OC2CCCCC2)n1)c1ccccc1 [Example 26]	3.81	99	–	–
O=C(Cc1ccccc1)Nc1cccc(CON=C(c2cccc(F)c2)c2nc(=O)o[nH]2)n1 [Example 76]	3.04	90	–	–
COc1cccc(C(=NOCc2cccc(NC(=O)c3ccc(C)cc3)n2)c2nc(=O)on2C)c1 [Example 106]	3.27	90	–	–
Cn1oc(=O)nc1C(=NOCc1cccc(N)n1)c1cccc(F)c1 [Example 23]	0.99	98	–	–
CCCCC(=O)Nc1cccc(CON=C(c2cccc(C)c2)c2nc(=O)on2C)n1 [Example 60]	3.19	89	–	–
Cc1cccc(C(=NOCc2cccc(NC(=O)OC(C)(C)C)n2)c2nc(=O)on2C)c1 [Example 21]	3.65	100	–	–
C#CCCOC(=O)Nc1cccc(CON=C(c2cccc(OC)c2)c2nc(=O)on2C)n1 [Example 96]	2.75	90	–	–
COc1cccc(C(=O)Nc2cccc(CON=C(c3cccc(F)c3)c3nc(=O)o[nH]3)n2)c1 [Example 64]	3.13	85	–	–
Cc1cccc(C(=NOCc2cccc(NC(=O)CC(C)C)n2)c2nc(=O)on2C)c1 [Example 85]	3.13	100	–	–
